Assay results as given in patent EP4624457A1, “I[…] DERIVATIVES, I[…] NEURODEGENERATIVE DISEASES” (Centre National de la Recherche Scientifique, priority 2024, dated 2025).

Test system: HCT116 cells
Assay: JC-1 mitochondrial membrane potential assay (flow cytometry)
Format: cell-based, human
Description: • Figure 1 represents the chemical structure of ingrilimine according to compound (Illa) formula. • Figure 2 represents the cytotoxic activity of ingrilimine. A2780 ovarian and HT29 colorectal carcinoma cells were grown in RPMI 1640 supplemented with 10% fetal calf serum (FCS) and 1% glutamine. U87-MG glioblastoma cells were grown in Dulbecco minimal essential medium containing 4.5 g/L glucose, 10% FCS and 1% glutamine at 37 °C in a humidified atmosphere containing 5% CO2. For IC50 determination, the cells were seeded in 96-well plates (3 × 10^3 cells/well) containing 90 µL of growth medium. After 24 h of culture, the cells were treated with ingrilimine at 10 different final concentrations. Cell viability was determined by luminescence after 72 h incubation. (a) Effect of ingrilimine on A2780 ovarian carcinoma cells. (b) Effect of ingrilimine on U87-MG glioblastoma cells. (c) Effect of ingrilimine on U87-MG glioblastoma cells • Figure 3a-3f represent the mitochondrial dysfunction provoked by ingrilimine. HCT116 cells were treated with ingrilimine in the range of […] for 24h and 48h. Sector Q normal cells that accumulated the JC-1 dye (fluorescence emission 590 nm). […] (a) Non-treated cells incubated with the carrier (DMSO) for 24 h. (b) HCT116 cells incubated with 10 nN ingrilimine for 24 h. (c) HCT116 cells incubated with 250 nM ingrilimine for 24 h. (d) Non-treated cells incubated with the carrier (DMSO) for 48 h. (e) HCT116 cells incubated with 10 nN ingrilimine for 48 h. (f) HCT116 cells incubated with 250 nM ingrilimine for 48. Changes in fluorescence emission were recorded by flow cytometry using the JC-1 mithocondrial membrane potential-dependent fluorescent dye. NT = non-treated cells; IngX = ingrilimine. • Figure 4a-4f represents phosphatidylserine exposure provoked by ingrilimine. […] Quadrants D1 and D2 with dead or necrotic cells, quadrant D3 with normal cells and quadrant D4 with apoptotic cells following phosphatidylserine exposure. (a) Non-treated A2780 cells incubated with the carrier (DMSO) for 24h. (b) A2780 cells incubated with 10 nM ingrilimine for 24 h. (c) A2780 cells incubated with 250 nM ingrilimine for 24 h. (d) Non-treated A2780 cells incubated with the carrier (DMSO) for 48 h. (e) A2780 cells incubated with 10 nM ingrilimine for 48 h. (f) A2780 cells incubated with 250 nM ingrilimine for 48. […] exposure in A2780 cell was quantified by flow cytometry using FITC-Annexin V. Dead or necrotic cells were detected using the vital dye propridium iodide. NT = non-treated cells; IngX = ingrilimine. • Figure 5 represents the antagonistic activity of ingrilimine (named "IngX" in the figure) and portimine (named "Port A" in the figure) against nicotinic acetylcholine receptors recorded by two-electrodes voltage clamp electrophysiology on Xenopus laevis oocytes. Clamped Xenopus laevis oocytes having incorporated the muscle (α1)2βγδ nAChR subtype from Torpedo marmorata (filled squares), or expressing the neuronal α3β2 nAChR subtype from rat (filled triangles), or expressing the human neuronal α7 nAChR subtype (filled circles) were exposed to portimine (100 nM - 1 mM) for 45 seconds. […] A Xenopus laevis oocyte expressing the human α7 nAChR subtype was exposed to 100 µM acetylcholine triggering the immediate opening of the receptor's channel (black bold line) followed by the very-fast closure of the channel ([…]) that became insensitive to acetylcholine during the rest of the 5 seconds exposure (desensitization). When a Xenopus laevis oocyte expressing the human α7 nAChR subtype was exposed first to 10 nM ingrilimine for 45 seconds and then to a mixture (Mix) containing 10 nM ingrilimine and 100 µM acetylcholine, the receptor's channel was closed denoting a strong antagonistic activity of the tested toxin against the α7 nAChR subtype (dotted line). […]

| SMILES | JC-1 % (10 nM, 24 h) [%] | JC-1 % (10 nM, 48 h) [%] | JC-1 % (50 nM, 24 h) [%] | JC-1 % (50 nM, 48 h) [%] | JC-1 % (100 nM, 24 h) [%] | JC-1 % (100 nM, 48 h) [%] | JC-1 % (250 nM, 24 h) [%] | JC-1 % (250 nM, 48 h) [%] | JC-1 % (500 nM, 24 h) [%] | times less potent than portimine in inducing mitochondrial membrane depolarization (HCT116, JC-1) [times] | JC-1 % (5 nM, 48 h) [%] | JC-1 % (20 nM, 24 h) [%] | JC-1 % (20 nM, 48 h, listed as Portimine) [%] | JC-1 % (20 nM, 48 h, listed as portimine) [%] |
| --- | --- | --- | --- | --- | --- | --- | --- | --- | --- | --- | --- | --- | --- | --- |
| C=CC1=C[C@@H]2C[C@@H](O)[C@@H](O)/C(C)=C/C/C(C)=C/CCC3=NCCC[C@]32CC1 [Ingrilimine, ingrilimine] | 5.1 | 4.4 | 6.1 | 22.6 | 14.9 | 44.1 | 22.7 | 64.1 | 36.9 | 10 |  |  |  |  |
| C=CC1=C[C@@H]2[C@@H]3O[C@]4(CC[C@H](O4)[C@@H](C)C[C@@H](O)C3=O)C[C@H](O)C3=NCC[C@@]32CC1 [Portimine-A] | 19.7 | 44.6 | 37.0 |  |  |  |  |  |  |  | 31.6 | 23.9 | 62.1 | 62.3 |
